The values below come from PubChem BioAssay AID1996.

In brackets after ≈: the same amount, converted by molar mass.

For this data set the following is noted: buffer; pH 7.4; 200.0 µM.
Usually kinetic solubility stands for solubility judged after dilution from a stock solution rather than from solid. In the case of `COc1ccc2cc(C(=O)NCC3CCCO3)[nH]c2c1` (configuration not stated), the solubility (kinetic) was over 41.1 µg/mL. With `COc1cc(/C=C(/C#N)C(=O)NCc2ccccc2)cc(OC)c1OC` the figure was 20 µg/mL (≈ 56.8 µM). The result for `O=C(NC(=S)N1CCc2ccccc21)C1CCC1` reads over 39.1 µg/mL; that for `CCSc1nc2sc3c(c2c(=O)n1-c1ccc(C)cc1)CCN(C)C3`, 35.6 µg/mL (≈ 95.8 µM).

Compound `CN(CC(=O)Nc1ccc2c(c1)OCCO2)CC(=O)Nc1ccc(F)c(F)c1F` showed a solubility (kinetic) of over 61.4 µg/mL. `CN(C(=O)COC(=O)c1cccc(F)c1)c1ccccc1` returned a kinetic solubility of 32 µg/mL (≈ 111 µM). As for `COc1ccc(/C(N)=N/OC(=O)c2cccc([N+](=O)[O-])c2C)cc1`, the solubility (kinetic) worked out at 1.1 µg/mL (≈ 3.34 µM). Compared with the last compound, the solubility kinetic is about 29-fold lower.

The compound `O=C(Cn1c(=O)oc2ccc(Cl)cc21)NC1CCCCC1` displayed a solubility (kinetic) of 2.9 µg/mL (≈ 9.39 µM). In turn, `CCOC(=O)c1c(C)[nH]c(C(=O)OCC(=O)NCc2ccccc2)c1C` registered a solubility (kinetic) of 4.5 µg/mL (≈ 12.6 µM).

On to `Cc1cc(C)cc(C(=O)NC(=S)Nc2cccnc2)c1`, for which the solubility (kinetic) was 8.4 µg/mL (≈ 29.4 µM). The result for `COc1ccc(C(=O)OCC(=O)NC2CCCC2)c(OC)c1` reads 44.8 µg/mL (≈ 146 µM); that for `Cc1ccc(/C(=C\CN2CCCC2)c2ccccn2)cc1.Cl`, over 47.2 µg/mL; that for `CNC(=O)CCCN1C(=O)c2ccccc2Sc2ncccc21`, over 49.1 µg/mL. With `COc1ccc(C)cc1S(=O)(=O)NC(C)C(=O)NC1CC1` (configuration not stated) the figure was over 46.9 µg/mL. Consider `Cc1ccc(OCC(=O)O/N=C(\N)c2ccccn2)cc1`, for which the kinetic solubility is over 42.8 µg/mL. The result for `Cc1cc(C)c(OCCOCCN2CCCC2)c(C)c1` reads 30.2 µg/mL (≈ 109 µM); that for `CCN(C(=O)CSc1ccc2ccccc2n1)C1CCCCC1`, 14.6 µg/mL (≈ 44.4 µM). In turn, `Cc1ccc(CSCC(=O)NCc2ccc3c(c2)OCO3)cc1` came in with a kinetic solubility of 11.5 µg/mL (≈ 34.9 µM). The result for `CC(C)C[C@H](NC(=O)NCCC1=CCCCC1)C(=O)O` reads 40.9 µg/mL (≈ 145 µM); that for `Cc1cccc(NC(=O)Cn2cc(C(=O)C3CC3)c3ccccc32)c1`, under 0.4 µg/mL. The result for `O=C(COC(=O)c1ccccc1)NC1CCCC1` reads over 37.1 µg/mL. With `CC(C)(C)C(=O)O/N=C(\N)c1c(Cl)cccc1Cl` the figure was 30.9 µg/mL (≈ 107 µM); with `O=C1NC(c2ccc(Br)cc2)Oc2ccccc21` (configuration not stated), 2.1 µg/mL (≈ 6.9 µM); with `O=C(NC1CC1)c1ccc(N2CCCCC2)c([N+](=O)[O-])c1`, over 43.4 µg/mL. The compound `CSc1cc(C)c(OCC(=O)Nc2ccc(NC(C)=O)cc2)c(C)c1` yielded a solubility (kinetic) of 4.4 µg/mL (≈ 12.3 µM). The result for `Cc1nc2cc(NC(=O)c3ccco3)ccc2n1C` reads 38.2 µg/mL (≈ 150 µM); that for `COc1ccc(OC)c(Nc2nc(N)nc(CCl)n2)c1`, 22.4 µg/mL (≈ 75.7 µM). The result for `CC12CN(C(=O)c3cccc([N+](=O)[O-])c3)C3(C#N)CC1CCC23C` (configuration not stated) reads 45.3 µg/mL (≈ 139 µM). As for `Nc1c(C(=O)N2CCOCC2)oc2ccccc12`, the solubility (kinetic) is over 36.9 µg/mL.

In turn, `Cc1sc2ncnc(SCc3ccc(C(=O)O)cc3)c2c1C` came in with a kinetic solubility of over 49.6 µg/mL. The result for `CCOC(=O)c1sc(NC(=O)c2ccc3nc[nH]c3c2)nc1C` reads 3.7 µg/mL (≈ 11.2 µM); that for `COc1ccc(NC(=O)COc2ccc(Br)cc2)c(OC)c1`, under 0.8 µg/mL. With `c1ccc(CNc2nc(-c3cccnc3)nc3ccccc23)cc1` the figure was 13.6 µg/mL (≈ 43.5 µM). With `CCCOc1ccc(/C=N/NC(=O)CN2CCCCC2)cc1` the figure was over 45.5 µg/mL; with `Cc1occc1C(=O)O/N=C(\N)c1ccc(Cl)cc1`, 9.1 µg/mL (≈ 32.7 µM).

`COc1ccc(N2CC(NC(=O)N(C)CCC#N)CC2=O)cc1` (configuration not stated) yielded a kinetic solubility of 46.7 µg/mL (≈ 148 µM). In turn, `CCOP(=O)(OCC)C(NC(=O)CC(C)C)C(Cl)(Cl)Cl` (configuration not stated) gave a solubility (kinetic) of over 55.3 µg/mL. In turn, `CC(Oc1ccccc1Cl)C(=O)N1CCCN(C)CC1` (configuration not stated) yielded a kinetic solubility of over 44.5 µg/mL. Turning to `COCCNC(=O)C(=O)Nc1ccc(Cl)cc1C`, the kinetic solubility is over 40.6 µg/mL. Take `O=[N+]([O-])c1ccc(NCc2ccc(Cl)cc2)c2ccncc12`: the solubility (kinetic) was determined as 0.3 µg/mL (≈ 0.956 µM). With `Nc1ncnc(Oc2cccc3cccnc23)c1[N+](=O)[O-]` the figure was 33.8 µg/mL (≈ 119 µM).

`COc1ccc(CNC(=O)Nc2cccc(Cl)c2)cc1` gave a kinetic solubility of 1.1 µg/mL (≈ 3.78 µM). Compared with the last compound, the solubility kinetic is about 31-fold lower. The result for `COc1ccccc1OC(=O)Nc1ccc(Cl)cc1` reads 17.8 µg/mL (≈ 64.1 µM); that for `Cc1cccc(N2CCN(C(=O)c3ccc(S(=O)(=O)N(C)c4ccccc4)cc3)CC2)c1C`, 6.7 µg/mL (≈ 14.5 µM); that for `Cc1cc(SCC(=O)Nc2ccc3[nH]c(=O)[nH]c3c2)nc2ccccc12`, 2.9 µg/mL (≈ 7.96 µM). With `Cc1ccc(C(=O)OCC(=O)NC2CCCC2)cc1C` the figure was 15.8 µg/mL (≈ 57.4 µM); with `O=C(NC(=S)N1CCCCC1CO)c1cccs1` (configuration not stated), over 42.7 µg/mL; with `CNc1cc(=O)n(C)c(=O)n1-c1ccccc1`, over 34.7 µg/mL.

With `COc1ccc(OC)c2c1sc(=NC(=O)C1CC1)n2C`, the solubility (kinetic) worked out at 0.9 µg/mL (≈ 3.08 µM).

`Cc1cc(NS(=O)(=O)c2ccc(NC(=O)COc3ccc(C#N)cc3)cc2)nc(C)n1`: the kinetic solubility was over 65.6 µg/mL.

Take `ClC1(Cl)CC1CSc1nc2ccccc2[nH]1` (configuration not stated): the solubility (kinetic) is 39.8 µg/mL (≈ 146 µM). With `O=C(NCC(=O)N1CCCCCC1)c1ccc(OC(F)F)cc1` the figure was over 49 µg/mL.
